Reference: patent US10206394B2, “Herbicidal compounds” (Syngenta Participations AG, priority 2014, dated 2019)
Where two headings read alike, the source gives them in different places.

What was measured:
Assay in all cases: Glasshouse assay for herbicidal activity (pre- and post-emergence), percentage phytotoxicity
Assay type in all cases: in vivo
[1] = system: Alopecurus myosuroides (ALOMY); conditions: Alopecurus myosuroides
Procedure: (§1) Test—Glasshouse Assay for Herbicidal Activity
(§2) Seeds of a variety of monocotyledonous and dicotyledonous test plants are sown in standard soil in pots. The plants are cultivated for one day (for pre-emergence (PRE)) or for about 12 days (for post-emergence (POST)) under controlled conditions in a glasshouse (warm climate species at 24/18° C., cool climate species at 20/16° C., both at day/night; 16 hours light; 65% humidity).
(§3) The test plants are then grown on, in a glasshouse (greenhouse) under controlled conditions (warm climate species at 24/18° C., cool climate species at 20/16° C., both at day/night; 16 hours light; 65% humidity) and are watered twice daily. 15 days after application of the test herbicide (15 DAA) (for post-emergence), and 20 days after application of the test herbicide (20 DAA) (for pre-emergence), the test plants are evaluated visually, and an assessed percentage phytotoxicity score is given for each herbicidal application on each plant species (with 100%=total damage to plant; 0%=no damage to plant).
(§4) The plant species tested are as follows: Alopecurus myosuroides (ALOMY), Avena fatua (AVEFA), Lolium perenne (LOLPE), Echinochloa crus-galli (ECHCG).

Avena fatua (AVEFA) = conditions: Avena fatua
Procedure: as §1, §2, §3, §4

[2] = system: Echinochloa crus-galli (ECHCG); conditions: Echinochloa crus-galli
Procedure: as §1, §2, §3, §4

Lolium perenne (LOLPE) = conditions: Lolium perenne
Procedure: as §1, §2, §3, §4

[3] = post-emergence, 360 h, 250 g/ha, post-emergence, 15 DAA, visual assessment (100%=total damage, 0%=no damage), read-out: Post-emergence herbicidal activity (percentage phytotoxicity) ALOMY POST
[4] = pre-emergence, 480 h, 250 g/ha, pre-emergence, 20 DAA, visual assessment (100%=total damage, 0%=no damage), read-out: Pre-emergence herbicidal activity (percentage phytotoxicity) ALOMY PRE
[5] = post-emergence, 360 h, 250 g/ha, post-emergence, 15 DAA, visual assessment (100%=total damage, 0%=no damage), read-out: Post-emergence herbicidal activity (percentage phytotoxicity) AVEFA POST
[6] = pre-emergence, 480 h, 250 g/ha, pre-emergence, 20 DAA, visual assessment (100%=total damage, 0%=no damage), read-out: Pre-emergence herbicidal activity (percentage phytotoxicity) AVEFA PRE
[7] = post-emergence, 360 h, 250 g/ha, post-emergence, 15 DAA, visual assessment (100%=total damage, 0%=no damage), read-out: Post-emergence herbicidal activity (percentage phytotoxicity) ECHCG POST
[8] = pre-emergence, 480 h, 250 g/ha, pre-emergence, 20 DAA, visual assessment (100%=total damage, 0%=no damage), read-out: Pre-emergence herbicidal activity (percentage phytotoxicity) ECHCG PRE
[9] = post-emergence, 360 h, 250 g/ha, post-emergence, 15 DAA, visual assessment (100%=total damage, 0%=no damage), read-out: Post-emergence herbicidal activity (percentage phytotoxicity) LOLPE POST
[10] = pre-emergence, 480 h, 250 g/ha, pre-emergence, 20 DAA, visual assessment (100%=total damage, 0%=no damage), read-out: Pre-emergence herbicidal activity (percentage phytotoxicity) LOLPE PRE
[11] = post-emergence, 360 h, Rate 250 g/ha, post-emergence, assessed visually 15 DAA, 100%=total damage, 0%=no damage, read-out: Post-emergence herbicidal activity (percentage phytotoxicity) ALOMY POST
[12] = pre-emergence, 480 h, Rate 250 g/ha, pre-emergence, assessed visually 20 DAA, 100%=total damage, 0%=no damage, read-out: Pre-emergence herbicidal activity (percentage phytotoxicity) ALOMY PRE
[13] = post-emergence, 360 h, Rate 250 g/ha, post-emergence, assessed visually 15 DAA, 100%=total damage, 0%=no damage, read-out: Post-emergence herbicidal activity (percentage phytotoxicity) AVEFA POST
[14] = pre-emergence, 480 h, Rate 250 g/ha, pre-emergence, assessed visually 20 DAA, 100%=total damage, 0%=no damage, read-out: Pre-emergence herbicidal activity (percentage phytotoxicity) AVEFA PRE
[15] = post-emergence, 360 h, Rate 250 g/ha, post-emergence, assessed visually 15 DAA, 100%=total damage, 0%=no damage, read-out: Post-emergence herbicidal activity (percentage phytotoxicity) ECHCG POST
[16] = pre-emergence, 480 h, Rate 250 g/ha, pre-emergence, assessed visually 20 DAA, 100%=total damage, 0%=no damage, read-out: Pre-emergence herbicidal activity (percentage phytotoxicity) ECHCG PRE
[17] = post-emergence, 360 h, Rate 250 g/ha, post-emergence, assessed visually 15 DAA, 100%=total damage, 0%=no damage, read-out: Post-emergence herbicidal activity (percentage phytotoxicity) LOLPE POST
[18] = pre-emergence, 480 h, Rate 250 g/ha, pre-emergence, assessed visually 20 DAA, 100%=total damage, 0%=no damage, read-out: Pre-emergence herbicidal activity (percentage phytotoxicity) LOLPE PRE
[19] = post-emergence, 360 h, POST-emergence, rate 250 g/ha, visual score 15 DAA (100%=total damage, 0%=no damage), read-out: Post-emergence herbicidal activity (percentage phytotoxicity) ALOMY POST
[20] = pre-emergence, 480 h, PRE-emergence, rate 250 g/ha, visual score 20 DAA (100%=total damage, 0%=no damage), read-out: Pre-emergence herbicidal activity (percentage phytotoxicity) ALOMY PRE
[21] = post-emergence, 360 h, POST-emergence, rate 250 g/ha, visual score 15 DAA (100%=total damage, 0%=no damage), read-out: Post-emergence herbicidal activity (percentage phytotoxicity) AVEFA POST
[22] = pre-emergence, 480 h, PRE-emergence, rate 250 g/ha, visual score 20 DAA (100%=total damage, 0%=no damage), read-out: Pre-emergence herbicidal activity (percentage phytotoxicity) AVEFA PRE
[23] = post-emergence, 360 h, POST-emergence, rate 250 g/ha, visual score 15 DAA (100%=total damage, 0%=no damage), read-out: Post-emergence herbicidal activity (percentage phytotoxicity) ECHCG POST
[24] = pre-emergence, 480 h, PRE-emergence, rate 250 g/ha, visual score 20 DAA (100%=total damage, 0%=no damage), read-out: Pre-emergence herbicidal activity (percentage phytotoxicity) ECHCG PRE
[25] = post-emergence, 360 h, POST-emergence, rate 250 g/ha, visual score 15 DAA (100%=total damage, 0%=no damage), read-out: Post-emergence herbicidal activity (percentage phytotoxicity) LOLPE POST
[26] = pre-emergence, 480 h, PRE-emergence, rate 250 g/ha, visual score 20 DAA (100%=total damage, 0%=no damage), read-out: Pre-emergence herbicidal activity (percentage phytotoxicity) LOLPE PRE

| SMILES | pest or weed control at 250 g/ha [1, 3] [%] | pest or weed control at 250 g/ha [1, 4] [%] | pest or weed control at 250 g/ha (Avena fatua (AVEFA); [5]) [%] | pest or weed control at 250 g/ha (Avena fatua (AVEFA); [6]) [%] | pest or weed control at 250 g/ha [2, 7] [%] | pest or weed control at 250 g/ha [2, 8] [%] | pest or weed control at 250 g/ha (Lolium perenne (LOLPE); [9]) [%] | pest or weed control at 250 g/ha (Lolium perenne (LOLPE); [10]) [%] | pest or weed control at 250 g/ha [1, 11] [%] | pest or weed control at 250 g/ha [1, 12] [%] | pest or weed control at 250 g/ha (Avena fatua (AVEFA); [13]) [%] | pest or weed control at 250 g/ha (Avena fatua (AVEFA); [14]) [%] | pest or weed control at 250 g/ha [2, 15] [%] | pest or weed control at 250 g/ha [2, 16] [%] | pest or weed control at 250 g/ha (Lolium perenne (LOLPE); [17]) [%] | pest or weed control at 250 g/ha (Lolium perenne (LOLPE); [18]) [%] | further results |
| --- | --- | --- | --- | --- | --- | --- | --- | --- | --- | --- | --- | --- | --- | --- | --- | --- | --- |
| Cc1cc(C)c(C2C(=O)CC(CC(=O)NC3(C)CCC3)C2=O)c(C)c1 (centres unmarked) [Compound B32] | 70 | 90 | 40 | 0 | 80 | 80 | 50 | 90 | – | – | – | – | – | – | – | – | – |
| COCCOCCCNC(=O)CC1CC(=O)C(c2c(C)cc(C)cc2C)C1=O (centres unmarked) [Compound A179] | – | – | – | – | – | – | – | – | – | – | – | – | – | – | – | – | pest or weed control at 250 g/ha ([1]; post-emergence, 360 h, post-emergence, 250 g/ha, 15 DAA, visual score (100%=total damage; 0%=no damage), read-out: ALOMY POST herbicidal activity (percentage phytotoxicity)): 100%; pest or weed control at 250 g/ha ([1]; pre-emergence, 480 h, pre-emergence, 250 g/ha, 20 DAA, visual score (100%=total damage; 0%=no damage), read-out: ALOMY PRE herbicidal activity (percentage phytotoxicity)): 100%; pest or weed control at 250 g/ha (Avena fatua (AVEFA); post-emergence, 360 h, post-emergence, 250 g/ha, 15 DAA, visual score (100%=total damage; 0%=no damage), read-out: AVEFA POST herbicidal activity (percentage phytotoxicity)): 100%; pest or weed control at 250 g/ha (Avena fatua (AVEFA); pre-emergence, 480 h, pre-emergence, 250 g/ha, 20 DAA, visual score (100%=total damage; 0%=no damage), read-out: AVEFA PRE herbicidal activity (percentage phytotoxicity)): 90%; pest or weed control at 250 g/ha ([2]; post-emergence, 360 h, post-emergence, 250 g/ha, 15 DAA, visual score (100%=total damage; 0%=no damage), read-out: ECHCG POST herbicidal activity (percentage phytotoxicity)): 100%; pest or weed control at 250 g/ha ([2]; pre-emergence, 480 h, pre-emergence, 250 g/ha, 20 DAA, visual score (100%=total damage; 0%=no damage), read-out: ECHCG PRE herbicidal activity (percentage phytotoxicity)): 80%; pest or weed control at 250 g/ha (Lolium perenne (LOLPE); post-emergence, 360 h, post-emergence, 250 g/ha, 15 DAA, visual score (100%=total damage; 0%=no damage), read-out: LOLPE POST herbicidal activity (percentage phytotoxicity)): 80%; pest or weed control at 250 g/ha (Lolium perenne (LOLPE); pre-emergence, 480 h, pre-emergence, 250 g/ha, 20 DAA, visual score (100%=total damage; 0%=no damage), read-out: LOLPE PRE herbicidal activity (percentage phytotoxicity)): 90% |
| Cc1cnc(CNC(=O)CC2CC(=O)C(c3c(C)cc(-c4ncc(Cl)cc4F)cc3C)C2=O)cn1 (centres unmarked) [Compound A152] | – | – | – | – | – | – | – | – | 90 | 70 | 100 | 100 | 90 | 100 | 100 | 90 | – |
| Cc1cc(-c2ncc(F)cc2F)cc(C)c1C1C(=O)CC(CC(=O)NC2CC2F)C1=O (centres unmarked) [Compound B289] | – | – | – | – | – | – | – | – | – | – | – | – | – | – | – | – | pest or weed control at 250 g/ha [1, 19]: 100%; pest or weed control at 250 g/ha [1, 20]: 100%; pest or weed control at 250 g/ha (Avena fatua (AVEFA); [21]): 100%; pest or weed control at 250 g/ha (Avena fatua (AVEFA); [22]): 100%; pest or weed control at 250 g/ha [2, 23]: 100%; pest or weed control at 250 g/ha [2, 24]: 100%; pest or weed control at 250 g/ha (Lolium perenne (LOLPE); [25]): 100%; pest or weed control at 250 g/ha (Lolium perenne (LOLPE); [26]): 100% |
| Cc1cc(-c2ncc(F)cc2F)cc(C)c1C1C(=O)CC(CC(=O)NCc2cc(F)cc(F)c2)C1=O (centres unmarked) [Compound B71] | 100 | 90 | 100 | 90 | 100 | 100 | 100 | 90 | – | – | – | – | – | – | – | – | – |
| Cc1cc(C)c(C2C(=O)CC(CC(=O)NCc3cccc(C(F)(F)F)c3)C2=O)c(C)c1 (centres unmarked) [Compound A89] | – | – | – | – | – | – | – | – | 90 | 90 | 90 | 60 | 100 | 100 | 100 | 90 | – |
| C/C=C/c1cc(C)c(C2C(=O)CC(CC(=O)N3CCOCC3)C2=O)c(CC)c1 (centres unmarked) [Compound B137] | 100 | 20 | 100 | 50 | 90 | 60 | 100 | 50 | – | – | – | – | – | – | – | – | – |
| CCCCNC(=O)CC1CC(=O)C(c2c(C)cc(-c3ncc(Cl)cc3F)cc2C)C1=O (centres unmarked) [Compound A44] | – | – | – | – | – | – | – | – | 100 | 100 | 100 | 100 | 100 | 100 | 100 | 100 | – |
| Cc1cc(-c2ccc(F)cc2)cc(C)c1C1C(=O)CC(CC(=O)NC(C)C)C1=O (centres unmarked) [Compound A34, 2-[3-[4-(4-fluorophenyl)-2,6-dimethyl-phenyl]-2,4-dioxo-cyclopentyl]-N-isopropyl-acetamide] | – | – | – | – | – | – | – | – | 100 | 100 | 100 | 100 | 100 | 100 | 100 | 100 | – |
| CCC(C)NC(=O)CC1CC(=O)C(c2c(C)cc(-n3cc(Cl)cn3)cc2C)C1=O (centres unmarked) [Compound B315] | – | – | – | – | – | – | – | – | – | – | – | – | – | – | – | – | pest or weed control at 250 g/ha [1, 19]: 90%; pest or weed control at 250 g/ha [1, 20]: 80%; pest or weed control at 250 g/ha (Avena fatua (AVEFA); [21]): 100%; pest or weed control at 250 g/ha (Avena fatua (AVEFA); [22]): 80%; pest or weed control at 250 g/ha [2, 23]: 100%; pest or weed control at 250 g/ha [2, 24]: 100%; pest or weed control at 250 g/ha (Lolium perenne (LOLPE); [25]): 80%; pest or weed control at 250 g/ha (Lolium perenne (LOLPE); [26]): 70% |
